{"source": "patent US6444234B1", "about": "“Compositions for rapid and non-irritating transdermal delivery of pharmaceutically active agents and methods for formulating such compositions and delivery thereof” (priority 1998, dated 2002)", "key": {"[1]": {"experiment": "Pilot trial on three hairless rats, blood samples after topical delivery system", "type": "in vivo, hairless rat", "experimental": "A pilot trial is performed on three hairless rats, during which a baseline blood sample is drawn, then 1 ml of the topical delivery system containing a titrated dose of each of the three test drugs is administered to each of the rats. Samples are harvested at 30 and 60 minutes."}, "[2]": {"experiment": "Laboratory solubilization of amitriptyline in the modified stock delivery system", "type": "physicochemical", "settings": "modified SDS; predicted amount within experimental error of the actual amount", "text": "The following Table 4 illustrates how the balancing of molar van der Waals forces can be utilized as a predictor of the solubilization of amitriptyline in the stock delivery system. In this case the calculations for balancing molar van der Waals forces were made first using the Chem3D software and the solutions were thereafter formulated in the laboratory. The amount predicted to dissolve, 2.08 gm per 100 c.c., was within experimental error of the actual amount which would dissolve in the laboratory experiment. In this case, the system was balanced by increasing the amounts of methylsulfonylmethane and ethanol and decreasing the amount of propylene glycol."}, "[3]": {"type": "physicochemical", "text": "The following tables are typical data sheets generated by the Chem3D software. These charts confirm the independent experimental solubility data and also, in Tables 1-3, show how modulation of the carrier system allows a higher dose of the test medicament, Diosgenin (MW=414.61).\nIt is pointed out, however, that the formulations shown in the following Tables, and which are based on the above described Stock Delivery System, were originally prepared without benefit of the use of the Chem 3D software and included omission of several different modifiers. Modifications to the SDS to effect solubilization and increase solute solvent ratios were made by the inventor on the basis of knowledge of how and where the solute (drug) works in the body and using this information to make intuitive predictions of how the solute would interact with the surrounding molecules of the SDS, such as induced polarities relative to other molecules; induction of electric fields due to influence of surrounding molecules; hydrophobic versus hydrophilic properties, etc., while always taking into consideration the desired functional effects contributed by each ingredient. […]"}, "[4]": {"experiment": "Full-scale protocol trial on 15 hairless rats", "settings": "topical", "experimental": "Samples for the morphine and acyclovir groups are taken at 30 minutes, 60 minutes and 120 minutes."}, "[5]": {"system": "air pouch granulomas", "experiment": "Murine Chronic Granulomatous Air-Pouch Model", "type": "in vivo, mouse", "settings": "normally sub-effective dose (30 mg/kg); decrease in dry weight of the granuloma", "text": "This example describes the results of an animal (mouse) study performed at St. Bartholomew's and The Royal London School of Medicine and Dentistry, Department of Experimental Pathology, to establish the efficacy of the topical delivery system, based on the Stock Delivery System of this invention for transdermal delivery of Cystamine (2,2′-dithiobisethanamine). A Murine Chronic Granulomatous Air-Pouch Model was used for evaluation of the delivery of the drug with SDS versus a control vehicle alone; control vehicle plus drug; and SDS alone.\nIn this study, 1 milligram (mg) of cystamine was added to 0.5 cc of Standard Stock Solution (SDS) as previously described, or to a control vehicle (aqueous isopropanol). In each case, the active ingredient (cystamine) was administered in an amount of 30 mg per kilogram of body weight.\nMice (TO or BALB/c, for hormone studies, 30±5 g) were lightly anaesthetized with halothane. Three milliliters of air were injected subcutaneously into the scruff of the neck using a 25 G needle. The shape of the air pouch was controlled by manipulation during inflation. […]\nVascularity was assessed by a modified form (see Kimura et al, [need citation] 1986) of the Carmine Red Vascular Casting technique. […] The dye content was measured spectrophotometrically at 490 nm against a standard curve of dye from 1-100 μg/ml. […]"}}}
{"compound": "Nc1nc2c(ncn2COCCO)c(=O)[nH]1", "note": "[Acyclovir]", "values": [{"measurement": "blood sample level, Baseline", "setting": "[1]; hairless, rat, in vivo", "result": 0}]}
{"compound": "CN(C)CCC=C1c2ccccc2CCc2ccccc21", "note": "[Amitriptyline]", "values": [{"measurement": "actual amount which would dissolve in the laboratory experiment", "setting": "[2]", "result": "~2.08", "unit": "gm per 100 c.c."}]}
{"compound": "C[C@@H]1CC[C@@]2(OC1)O[C@H]1C[C@H]3[C@@H]4CC=C5C[C@@H](O)CC[C@]5(C)[C@H]4CC[C@]3(C)[C@H]1[C@@H]2C", "note": "[Diosgenin, (25R)-Spirost-5-en-3β-ol]", "values": [{"measurement": "increase of solubilized dose", "setting": "[3]", "result": "~5", "unit": "fold"}]}
{"compound": "C[C@]12CC[C@H]3[C@@H](CCC4=CC(=O)CC[C@@]43C)[C@@H]1CC[C@@H]2O", "note": "[Testosterone]", "values": [{"measurement": "blood sample level, 30 minutes", "setting": "[1]; testosterone 5 mg in 1 ml, topical", "result": "1,552 ng/dl"}, {"measurement": "increase of testosterone levels", "setting": "[4]; in one hour, 5 mg in 1 ml", "result": 10, "unit": "fold"}]}
{"compound": "NCCSSCCN", "note": "[cystamine, 2,2′-dithiobisethanamine]", "values": [{"measurement": "efficacy of the dose when delivered with SDS", "setting": "[5]", "result": "effective dose"}]}
{"compound": "CN1CC[C@]23c4c5ccc(O)c4O[C@H]2[C@@H](O)C=C[C@H]3[C@H]1C5.O=S(=O)(O)O", "note": "[morphine sulfate]", "values": [{"measurement": "blood sample level, Baseline", "setting": "[1]; before 1 ml of the topical delivery system", "result": 0}, {"measurement": "blood sample level, 60 minutes", "setting": "[1]; morphine 2.5 mg in 1 ml, topical", "result": 45, "unit": "nmol/L"}, {"measurement": "blood levels compared with intravenous dosing", "setting": "[4]; 2.5 mg dose of morphine", "result": "equivalent to a 10 mg IV dose"}]}
